Earlier results, collected in US6953790B2, “CGRP receptor antagonists” (Merck & Co., Inc., priority 2003, dated 2005).
No end group written: not given here.

Key:
facial blood flow [1] = conditions: marmoset, electrical stimulation of the trigeminal ganglion (Doods et al. 2000)
CGRP receptor = target: T1, CGRP receptor (Homo sapiens, UniProt O60894+Q16602); conditions: clinical trials (Olesen et al. 2004)
T1 construct: host or cells: human migraine patients (in vivo)

middle meningeal artery = conditions: rats, electrical stimulation of the dura mater, prior administration (Williamson et al. 1997)
facial blood flow [2] = conditions: rat, trigeminal ganglion stimulation (Escott et al. 1995)

T1 sequence (Q16602 23-461): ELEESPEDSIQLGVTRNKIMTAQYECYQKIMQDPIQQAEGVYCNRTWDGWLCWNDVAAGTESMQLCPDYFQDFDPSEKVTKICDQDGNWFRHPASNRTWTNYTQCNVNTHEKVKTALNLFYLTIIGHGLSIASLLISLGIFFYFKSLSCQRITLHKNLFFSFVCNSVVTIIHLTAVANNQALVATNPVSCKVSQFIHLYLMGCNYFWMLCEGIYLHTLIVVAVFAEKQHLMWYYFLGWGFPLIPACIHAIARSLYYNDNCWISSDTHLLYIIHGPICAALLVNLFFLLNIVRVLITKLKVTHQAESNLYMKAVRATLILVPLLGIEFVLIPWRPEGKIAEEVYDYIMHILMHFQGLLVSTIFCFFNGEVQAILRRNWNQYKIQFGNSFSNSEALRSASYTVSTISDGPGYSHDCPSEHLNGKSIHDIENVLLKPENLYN
T1 sequence (O60894 27-148): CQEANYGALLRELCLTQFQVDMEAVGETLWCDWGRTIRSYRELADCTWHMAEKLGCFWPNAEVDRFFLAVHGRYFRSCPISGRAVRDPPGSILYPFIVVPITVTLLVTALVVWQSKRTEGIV

Molecule	effect on increase in facial blood flow (facial blood flow [1])	efficacy in acute attacks of migraine (CGRP receptor)	effect on increase in diameter of the middle meningeal artery (middle meningeal artery)	effect on increased facial blood flow (facial blood flow [2])
NCCCC[C@H](NC(=O)[C@@H](Cc1cc(Br)c(O)c(Br)c1)NC(=O)N1CCC(N2Cc3ccccc3NC2=O)CC1)C(=O)N1CCN(c2ccncc2)CC1 [BIBN4096BS]	blocked	effective in treating acute attacks of migraine	–	–
CGRP(8-37): "a peptide CGRP antagonist" (VTHRLAGLLSRSGGVVKNNFVPTNVGSKAF; ends and bridges not checked; UniProt P06881 90-119, looked up, fragment)	–	–	blocked	inhibited
